From patent publication US12290544B1, “Essential oil of stems and leaves of Chuzhou chrysanthemum and application thereof” (Chuzhou University, priority 2023, dated 2025)
Structures can show the parent of a compound that is named as a salt.

Key:
Staphylococcus aureus = assay: Bacterial inhibition assay (filter paper, bacteriostatic ring); assay type: cell-based
Protocol: (§1) Cultured Escherichia coli and Staphylococcus aureus are diluted into […] colony forming units per milliliter (CFU/mL) bacterial solution respectively, and evenly spread on a potato dextrose agar (PDA) plate. After standing for 10 min, the filter paper with a diameter of 6 mm made by a punch is spread on the PDA plate, and 6 pieces are evenly placed in each plate. 10 μL of essential oil of stems and leaves of Chuzhou chrysanthemum with a concentration of 5 mg/mL is added with a pipette, and the culture dish is placed in a 37° C. incubator for culture. In the same way, the bacterial inhibition assay of the essential oil of the stems and leaves of Chuzhou chrysanthemum is carried out at the concentrations of 10, 20, 50, and 100 mg/mL. After 16 to 18 h of incubation, a diameter of a bacteriostatic ring (including the piece) is measured with a vernier caliper and recorded. When measuring the bacteriostatic ring, the bacteriostatic ring with uniform and completely sterile growth should be selected, and its diameter should be measured with an outer edge of the bacteriostatic ring as the boundary. Six parallel experiments are performed for each concentration, and the mean and standard deviation are calculated. Ethyl acetate is used as blank control, and streptomycin sulfate and ampicillin are used as positive controls.

Escherichia coli = assay: as above; assay type: cell-based
Protocol: as §1

[1] = positive control 50 ppm, read-out: Inhibitory rate
[2] = positive control 500 ppm, read-out: Inhibitory rate

SMILES	Bacteriostatic ring diameter (Staphylococcus aureus; positive control 50 ppm) [C mm]	inhibition at 50 ppm (Staphylococcus aureus; [1]) [%]	Bacteriostatic ring diameter (Escherichia coli; positive control 50 ppm) [B mm]	inhibition at 50 ppm (Escherichia coli; [1]) [%]	Bacteriostatic ring diameter (Staphylococcus aureus; positive control 500 ppm) [B mm]	inhibition at 500 ppm (Staphylococcus aureus; [2]) [%]	Bacteriostatic ring diameter (Escherichia coli; positive control 500 ppm) [C mm]	inhibition at 500 ppm (Escherichia coli; [2]) [%]
CC1(C)S[C@@H]2[C@H](NC(=O)[C@H](N)c3ccccc3)C(=O)N2[C@H]1C(=O)O [Ampicillin]	16.58 ± 1.17	53.2 ± 3.03	17.12 ± 0.63	54.8 ± 1.66				
[H]/N=C(/N)N[C@H]1[C@H](O)[C@@H](O)[C@H](O[C@@H]2O[C@@H](C)[C@](O)(C=O)[C@H]2O[C@@H]2O[C@@H](CO)[C@H](O)[C@@H](O)[C@@H]2NC)[C@@H](N/C(N)=N\[H])[C@@H]1O [Streptomycin sulfate]					18.10 ± 0.48	57.3 ± 1.13	15.98 ± 0.43	51.6 ± 1.3
